Experimental data reported in patent US20220213030A1, “AMINOGUANIDINE HYDRAZONES AS RETROMER STABILIZERS USEFUL FOR TREATING NEUROLOGICAL DISEASES” (OSPEDALE SAN RAFFAELE SRL, priority 2019, published 2022).

How the values were obtained:
[1] = tested on: Golgi apparatus in Neuro2a cells receiving G93A plasmids; assay: Golgi morphology (Golgin97) in Neuro2a cells receiving G93A plasmids; format: cell-based, mouse; conditions: 10 μM, 48 hours, G93A-transfected Neuro2a
Description: Pathological alteration of the Golgi apparatus, such as its fragmentation, has been described in many neurodegenerative disorders including ALS. Neuro2a cells transfected with plasmids encoding the G93A mutant form of the SOD1 show alteration of the Golgi transport (Soo, Halloran et al. 2015). Along the same lines, Golgi fragmentation precedes neuromuscular denervation and axon retraction in ALS mice (van Dis, Kuijpers et al. 2014). We transfected Neuro2a cells with plasmids encoding the G93A mutant form of the human SOD1 gene (hereafter G93A) in presence or in absence of compound 2a (10 μM). Cells were harvested after 48 hours, labelled for Golgin-97 and scored for the distribution of trans-Golgi. […] Of note, the fragmentation of Golgi in cells receiving G93A plasmids was not depending on Golgin97 expression levels (FIG. 3A). We speculated that Golgi fragmentation may exacerbate cell death in this cell line. Therefore, we assayed cell survival of Neuro2a transfected with G93A plasmids. Accordingly, cells were transfected with G93A plasmids or with a control plasmid encoding the LacZ. […]
Golgi morphology was assessed in control or in Neuro2a cells receiving G93A plasmids with or without compound 2a (10 μM) according to published methods (Stafa 2012). […] Golgi subclasses were expressed as a percent of the total number of Golgi scored for each experimental condition.

[2] = Brain uptake of compound 2a in C57BL6J mice (LC-MS/MS); format: in vivo; conditions: 10 mg/Kg/day intraperitoneal; 1, 7, 15 and 30 days; saline perfused
Protocol: We run a pharmacokinetic assay on C57BL6J mice that received daily intraperitoneal injections of compound 2a (10 mg/Kg/day). Mice were sacrificed after 1, 7, 15 and 30 days saline perfused to avoid the CNS contamination of compounds contained in blood circulation and brains used for the determination of compound 2a levels by mass spectrometry.
Healthy mice were daily injected with vehicle or compound 2a (10 mg/kg) and sacrificed after 1, 7, 15 and 30 days. Upon saline perfusion, brains were dissociated from skulls, carefully weighted and rapidly stored in dry ice. Then, brains (˜400 mg) were checked for the presence of Compound 2a. […] After the extraction, each biological sample was re-suspended in 60 μl of LC/MS grade water and 5 μl analyzed by LC-MS/MS using the UPLC 1290 (Agilent Technologies) coupled to the TripleTOF 5600+ mass spectrometer (SCIEX) in positive mode. A Waters ACQUITY UPLC BEH HILIC column (2.1×10 mm, 1.7 μm) was used for the chromatographic separation through a gradient of solvent A (ACN+0.1% FA) and solvent B (H2O+0.1% FA). Calibration curves were constructed by plotting the peak area versus the corresponding concentrations using MultiQuant 2.1 software (SCIEX).

VPS26 = VPS26 MFI in NeuN+ MNs of G93A mice; format: in vivo, mouse; conditions: 10 mg/kg, day 100
Description: We next assayed retromer proteins labelling sections of mice sacrificed at day 100 for VPS35 and NeuN. […] Similarly, we observed that VPS26 levels were increased in G93A mice receiving compound 2a (FIG. 11B). We further corroborated our experimental finding observing that compound 2a increased retromer functionality. The cation-independent mannose 6-phosphate receptor (CI-MPR) is a cargo (Arighi et al., 2004) of the retromer complex that is unstable in VPS26 knockout cells (Seaman 2004). We observed a substantial reduction of CI-MPR MFI levels in MNs of vehicle-treated G93A mice when compared with WT litters (FIG. 11C). […]
Fluorescence intensity levels of VPS35, VPS26, Sortilin, CTSD and Ubiquitin were calculated using NHI-Image J software (US National Institutes of Health) according to the following protocol: stacks of confocal images were used to generate the maximal projections (Las-X) and then post-processed by NHI-Image J to crop single NeuN^+ MNs from the ventral horn of the spinal cord. We next performed background (calculated on adjacent slices only receiving secondary antibodies) subtraction for each channel, before applying the NHI-Image J mean filter (with radius 2.0 pixels) to calculate mean NeuN fluorescence levels in individual MN. […] On this selected ROI, we calculated mean fluoresce levels (MFI) of each protein.

CI-MPR = CI-MPR MFI in MNs of G93A mice; format: in vivo, mouse; conditions: 10 mg/kg, day 100
Description: We next assayed retromer proteins labelling sections of mice sacrificed at day 100 for VPS35 and NeuN. […] Similarly, we observed that VPS26 levels were increased in G93A mice receiving compound 2a (FIG. 11B). We further corroborated our experimental finding observing that compound 2a increased retromer functionality. The cation-independent mannose 6-phosphate receptor (CI-MPR) is a cargo (Arighi et al., 2004) of the retromer complex that is unstable in VPS26 knockout cells (Seaman 2004). We observed a substantial reduction of CI-MPR MFI levels in MNs of vehicle-treated G93A mice when compared with WT litters (FIG. 11C). […] Sortilin encodes for a receptor belonging to the Vps10 family, and it has been involved in Frontotemporal Dementia (FTD), (Lane 2012).
Sections from mice (frozen cryo sections) or glass covers containing cells were washed three times in PBS 1× (Lonza, 5 min each), and incubated in the following blocking mix: PBS 1×/FBS 10% (Invitrogen), BSA 1 mg/mL (Sigma), TritonX100 0.1% (Sigma), for 1 h at room temperature. Antibodies were diluted in blocking mix and incubated at +4° C. overnight according manufacturer's instructions. […]

[3] = tested on: lysosomes in Neuro2a cells receiving G93A plasmids; assay: Lyso-tracker analysis of lysosomes in G93A-transfected Neuro2a; format: cell-based, mouse; conditions: 10 μM, 24 hours of starvation
Protocol: We next determined whether a reduction of VPS35 levels in Neuro2a cells could affect lysosomal homeostasis, mimicking what we and others observed in the ALS mouse model (Cheng 2018). We transfected Neuro2a cells with plasmids encoding the Sh56 RNAi to downregulate VPS35. After 24 hours of starvation, we analyzed the lysosomes using the Lyso-tracker. We observed an enlarged and abnormal distribution of lysosomes in cells with VPS35 interference by Sh56 (FIG. 15A-C). […] We asked whether G93A plasmids would also result in similar lysosomal alterations. We transfected Neuro2a cells with plasmids encoding G93A, with or without compound 2a (10 μM). After 24 hours of starvation, we monitored the lysosomes in such cells with the Lyso-tracker.

SMILES: N=C(N)NN=Cc1cccc(C=NNC(=N)N)c1 [Compound 2a, 1,3-Bis-amino guanidine phenyl hydrazone]
- percentages of cells showing partial or complete fragmentation of the Golgi complex [1]: significantly diminished these percentages
- compound levels in the brain (ability to access the CNS) [2]: significant amounts of compound 2a in the brain
- VPS26 levels (MFI) (VPS26): increased
- CI-MPR MFI levels (CI-MPR): significantly increased
- enlarged lysosomes (Lyso-tracker-covered areas) [3]: significantly reverted this phenotype
